Test system: T-lymphocytes
Assay: Lymphocyte toxicity assay (LTA)
Format: cell-based, human
Details: for Viability %: post-mastectomy
Source text: The present invention is particularly effective in determining the efficacy of the drug alone by measuring the lymphocyte toxicity assay and then combining the prescribed drug with various anabolic steroidal compounds.
Exemplifying the present invention is Table 2 below which sets forth a lymphocyte toxicity assay for a post-mastectomy treatment for reducing pain by measuring the efficacy of combining a known drug, Inflectra, with a steroidal compound which is an anti-tumor necrosis alpha inhibitor as the base.

[1] = single therapeutic, patient blood cells, untreated cell control = 100%

Row | Molecule | Viability % [1] [%] | Toxicity to the cells (interpretation in words) (patient blood cells exposed to the therapeutics) | Toxicity [1] [%]
1 | INFLECTRA: known drug; anti-tumor necrosis alpha inhibitor | 160 | – | –
2 | C[C@]12CC[C@H]3[C@@H](CCC4=CC(=O)CC[C@@H]43)[C@@H]1CC[C@@H]2O [Nandrolone] | 158 | – | –
3 | C[C@]12Cc3c[nH]nc3C[C@@H]1CC[C@@H]1[C@@H]2CC[C@@]2(C)[C@H]1CC[C@]2(C)O [Stanozolol] | – | The only medication that was toxic to the cell was Stanozolol. However, the combination of Stanozolol | 14
4 | C[C@]12CC[C@H]3[C@@H](CCC4=CC(=O)CC[C@@]43C)[C@@H]1CC[C@@H]2O [Testosterone] | 150 | – | –
5 | C[C@]12COC(=O)C[C@@H]1CC[C@@H]1[C@@H]2CC[C@@]2(C)[C@H]1CC[C@]2(C)O [Oxandrolone] | 117 | – | –

— patent publication US20250002597A1, “METHOD FOR OPTIMIZING DRUG SELECTION” (priority 2023, published 2025)
